Results published in patent US7550509B2, “Carisoprodol articles and methods” (Mutual Pharmaceutical Company, Inc., priority 2006, dated 2009).
Where two headings read alike, the source gives them in different places.

What was measured:
[1] = Biostudy of carisoprodol (SOMA®) pharmacokinetics under non-fasted and fasted conditions, randomized single-dose two-way crossover; assay type: in vivo, human (healthy adults); settings: for AUC(0-inf) / AUC(0-t) / Tmax / Cmax: plasma; for AUC(0-inf): read-out: AUC0-INF, geometric mean (ln-transformed); for AUC(0-t): read-out: AUC0-t, geometric mean (ln-transformed); for Tmax: read-out: Tmax, least sq. mean (non-transformed); for Cmax: single dose SOMA®, 22 subjects, read-out: Cmax, geometric mean (ln-transformed)
Procedure: A biostudy was conducted under fasted and non-fasted conditions.
The dosage form is administered with 240 ml of water during the fasting period, and water can be allowed ad libitum after 2 hours.
As used herein, for the purposes of biostudy and the determination of bioequivalence, a non-fasted patient is defined as a patient who fasts for at least 10 hours overnight and then consumes an entire test meal within 30 minutes of first ingestion. The dosage form is administered with 240 mL of water at 30 minutes after first ingestion of the meal. No food is then allowed for at least 4 hours post-dose. Water can be allowed ad libitum after 2 hours. A high fat test meal provides approximately 1000 calories to the patient of which approximately 50% of the caloric content is derived from fat content of the meal. A representative high fat high calorie test meal comprises 2 eggs fried in butter, 2 strips of bacon, 2 slices of toast with butter, 4 ounces of hash brown potatoes, and 8 ounces of whole milk to provide 150 protein calories, 250 carbohydrate calories, and 500 to 600 fat calories.
The study was designed as a randomized, single-dose two-way crossover to compare the pharmacokinetic parameters of SOMA®. Twenty-four healthy adults participated in this comparison study and 22 of the subjects completed the study. Subjects received two separate drug administration treatments in assigned periods, one treatment per period, according to the randomization schedule. Dosing days were separated by a washout period of at least seven days. Blood samples were drawn prior to dosing (pre-dose) and at 0.33, 0.67, 1, 1.5, 2, 2.5, 3, 3.5, 4, 5, 6, 7, 8, 10, 12, 18, and 24 hours post-dose. The samples were then analyzed for carisoprodol and meprobamate.
The following pharmacokinetic parameters may be determined from the plasma concentration data:
The area under the plasma concentration versus time curve [AUCt] may be calculated using the linear trapezoidal rule from the zero time point to the last measured concentration.
The area under the plasma concentration versus time curve from zero to infinity [AUC0-INF] may be calculated by adding Ct/Kelm to AUC where Ct is the last measured concentration and Kelm is the elimination rate constant.
The maximum observed plasma concentration [Cmax] may be obtained by inspection. The Cmax may also be designated as CMAX.
The time to maximum plasma concentration [Tmax] may be obtained by inspection. If the same maximum plasma concentration occurs at more than one time point, the first may be chosen as Tmax.
The terminal elimination rate constant [Kelm] may be obtained from the slope of the line, fitted by linear least squares regression, through the terminal points of the 1n(base e) of the concentration versus time plot for these points.
The half-life [T1/2] may be calculated by the equation T1/2=0.693/Kelm.

[2] = cited from earlier work
[3] = carisoprodol, non-fasted compared to fasted
[4] = carisoprodol, non-fasted vs fasted
[5] = human, oral, carisoprodol in plasma, fasted
[6] = human, oral, carisoprodol in plasma, non-fasted

SMILES: CCCC(C)(COC(N)=O)COC(=O)NC(C)C (stereo not drawn) [carisoprodol, N-isopropyl-2-methyl-2-propyl-1,3-propanediol dicarbamate]
- T½, least sq. mean ([1]; carisoprodol in plasma, fasted): 1.95 h
- kelm (elimination rate constant), least sq. mean ([1]; carisoprodol in plasma, fasted): 0.376
- kelm (elimination rate constant), least sq. mean ([1]; carisoprodol in plasma, non-fasted): 0.3713
- decrease in the geometric mean of Cmax in the presence of food [1, 3]: 16%
- effect of food on AUC (AUC0-t and AUC0-INF) (in words) [1, 3]: substantially unchanged
- effect of food on Cmax (in words) [1, 3]: decreases
- AUC0-INF, % Ratio of geometric means [1, 4]: 96.8%
- AUC0-t, % Ratio of geometric means [1, 4]: 96.1%
- Cmax, % Ratio of geometric means [1, 4]: 83.8%
- Tmax, % Ratio [1, 4]: 137.5%
- T½, % Ratio [1, 4]: 100%
- kelm, % Ratio [1, 4]: 98.7%
- half-life ([1]; human, oral, carisoprodol in plasma, non-fasted, read-out: T½, least sq. mean (converted)): 1.95 h
- AUC(0-inf) [1, 5]: 6510 ng·h/mL
- AUC(0-t) [1, 5]: 6380 ng·h/mL
- Tmax [1, 5]: 1.63 h
- Cmax [1, 5]: 2000 ng/mL
- Cmax ([1]; human, oral, carisoprodol in plasma, non-fasted (high fat meal)): 1680 ng/mL
- AUC(0-inf) [1, 6]: 6310 ng·h/mL
- AUC(0-t) [1, 6]: 6140 ng·h/mL
- Tmax [1, 6]: 2.24 h
- solubility in organic solvents (in words) ([2]; alcohol, chloroform, and acetone): freely soluble
- solubility in water ([2]; between 25 to 50° C.): 300 to 1400 µg/mL
- solubility in water (in words) ([2]; water): very sparingly soluble
